One compound from EP0912534B1, “MUSCARINIC ANTAGONISTS” (SCHERING CORPORATION, priority 1996, dated 1998) can be followed below.

Each structure is given as a SMILES string.

Experiment [1] concerns the target T1, cloned human m1 muscarinic receptor (Homo sapiens, UniProt P11229).
T1 sequence (P11229 1-460): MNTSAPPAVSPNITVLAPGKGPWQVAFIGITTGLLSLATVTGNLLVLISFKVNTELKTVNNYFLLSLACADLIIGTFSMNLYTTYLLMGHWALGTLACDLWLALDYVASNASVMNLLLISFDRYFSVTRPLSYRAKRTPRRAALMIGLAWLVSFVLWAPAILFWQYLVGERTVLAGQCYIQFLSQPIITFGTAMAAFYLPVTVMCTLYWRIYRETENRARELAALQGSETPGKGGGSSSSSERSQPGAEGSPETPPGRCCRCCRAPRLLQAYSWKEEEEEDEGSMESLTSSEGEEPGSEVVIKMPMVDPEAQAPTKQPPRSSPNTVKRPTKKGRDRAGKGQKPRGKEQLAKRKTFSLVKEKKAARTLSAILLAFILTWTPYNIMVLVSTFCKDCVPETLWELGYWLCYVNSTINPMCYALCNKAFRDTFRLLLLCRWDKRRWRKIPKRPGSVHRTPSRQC
Put plainly: Muscarinic binding activity (3H-QNB displacement), m1. Conditions: Ki m1, membranes of transfected CHO cells.

Experiment [2] addresses T2, cloned human m2 muscarinic receptor (Homo sapiens, UniProt P08172).
T2 sequence (P08172 1-466): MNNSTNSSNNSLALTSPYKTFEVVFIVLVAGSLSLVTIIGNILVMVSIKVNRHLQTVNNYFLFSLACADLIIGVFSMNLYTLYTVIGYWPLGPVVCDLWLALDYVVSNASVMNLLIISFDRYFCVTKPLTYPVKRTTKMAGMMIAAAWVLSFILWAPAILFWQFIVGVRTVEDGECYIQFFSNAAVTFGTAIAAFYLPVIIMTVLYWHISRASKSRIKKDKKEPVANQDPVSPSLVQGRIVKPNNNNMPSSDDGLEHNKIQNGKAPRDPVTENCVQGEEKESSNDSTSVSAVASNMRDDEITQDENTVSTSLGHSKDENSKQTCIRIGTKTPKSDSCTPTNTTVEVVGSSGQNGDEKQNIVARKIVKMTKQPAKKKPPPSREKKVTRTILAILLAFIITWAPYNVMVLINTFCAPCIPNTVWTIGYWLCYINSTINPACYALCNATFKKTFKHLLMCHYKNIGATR
Put plainly: Muscarinic binding activity (3H-QNB displacement), m2. Conditions: Ki m2, membranes of transfected CHO cells.

Experiment [3] has as its target T3, cloned human m4 muscarinic receptor (Homo sapiens, UniProt P08173).
T3 sequence (P08173 1-479): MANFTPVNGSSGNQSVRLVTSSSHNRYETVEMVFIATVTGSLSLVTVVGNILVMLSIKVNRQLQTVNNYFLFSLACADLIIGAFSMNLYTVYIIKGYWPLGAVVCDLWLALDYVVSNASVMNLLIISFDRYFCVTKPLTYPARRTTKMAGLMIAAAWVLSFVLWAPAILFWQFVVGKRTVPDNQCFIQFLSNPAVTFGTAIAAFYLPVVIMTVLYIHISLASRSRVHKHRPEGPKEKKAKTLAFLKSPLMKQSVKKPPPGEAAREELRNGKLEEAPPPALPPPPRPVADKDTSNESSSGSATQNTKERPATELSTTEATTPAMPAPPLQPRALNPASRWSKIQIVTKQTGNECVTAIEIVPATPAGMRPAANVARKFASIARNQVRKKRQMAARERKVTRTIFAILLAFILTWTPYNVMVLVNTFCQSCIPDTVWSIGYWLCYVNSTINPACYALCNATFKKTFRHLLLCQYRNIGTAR
As to the kind of experiment: Muscarinic binding activity (3H-QNB displacement), m4. Conditions: Ki m4, membranes of transfected CHO cells.

Experiment [4] concerns Release of Acetyl Choline (ACh) from Striatum. Put plainly: Microdialysis: release of acetylcholine from striatum of conscious rats. Conditions: 10 mg/kg peritoneal, 3 rats, Isomer B. Type of experiment: in vivo, male Sprague-Dawley Rats. On the procedure:
The skull was exposed and drilled through to the dura at a point 0.2 mm anterior and 3.0 mm lateral to the bregma. At these coordinates, a guide cannula was positioned at the outer edge of the dura through the drilled opening, lowered perpendicularly to a depth of 2.5 mm, and permanently secured with dental cement to bone screws. Following the surgery, rats were given ampicillin (40 mg/kg, ip) and individually housed in modified cages. A recovery period of approximately 3 to 7 days was allowed before the microdialysis procedure was undertaken. • Microdialysis: All of the equipment and instrumentation used to conduct in vivo microdialysis was obtained from Bioanalytical Systems, Inc. (BAS). The microdialysis procedure required the insertion through the guide cannula of a thin, needle-like perfusable probe (CMA/12.3 mm x 0.5 mm) to a depth of 3 mm in striatum beyond the end of the guide. The probe was connected beforehand with tubing to a microinjection pump (CMA-/100). Rats were collared and tethered, and, following probe insertion, were placed in a large clear plexiglass bowl with litter material and access to food and water. The probe was perfused at 2 µl/min with Ringer's buffer (NaCl 147 mM; KCI 3.0 mM; CaCl2 1.2 mM; MgCl2 1.0 mM) containing 5.5 mM glucose, 0.2 mM L-ascorbate, and 1 µM neostigmine bromide at pH 7.4. To achieve stable baseline readings, microdialysis was allowed to proceed for 90 minutes prior to the collection of fractions. Fractions (20 µl) were obtained at 10-minute intervals over a 3-hour period using a refrigerated collector (CMA/170 or 200). Following the collection of four to five baseline fractions, the drug or combination of drugs to be tested was administered to the animal. Once collection was complete, each rat was autopsied to determine how accurately the probe was placed. • Acetylcholine (ACh) analysis: The concentration of ACh in collected samples of microdialysate was determined using HPLC/electrochemical detection. Samples were auto-injected (Waters 712 Refrigerated Sample Processor) onto a polymeric analytical HPLC column (BAS, MF-6150) and eluted with 50 mM Na2HPO4, pH 8.5. To prevent bacterial growth, Kathon CG reagent (0.005%) (BAS) was included in the mobile phase. Eluate from the analytical column, containing separated ACh and choline, was then immediately passed through an immobilized enzyme reactor cartridge (BAS, MF-6151) coupled to the column outlet. The reactor contained both acetylcholinesterase and choline oxidase covalently bound to a polymeric backbone. […] Data acquisition was carried out using an IBM Model 70 computer equipped with a microchannel IEEE board. Integration and quantification of peaks were accomplished using "Maxima" chromatography software (Waters Corporation). Total run time per sample was 11 minutes at a flow rate of 1 ml/min. Retention times for acetylcholine and choline were 6.5 and 7.8 minutes respectively. To monitor and correct for possible changes in detector sensitivity during chromatography, ACh standards were included at the beginning, middle and end of each sample queue.
Increases in ACh levels are consistent with presynaptic m2 receptor antagonism.

Broadly, the Ki is a measure of affinity in units of concentration, obtained from inhibition or displacement. A low value points to a stronger hold on the target. For `COc1ccc(S(=O)(=O)c2ccc3c(c2)CCC3N2CCN(C3CCCCC3)C[C@H]2C)cc1` (single isomer, unassigned) [Compound 15], the inhibition constant Ki stood at 1.23 nM in experiment [1], 0.11 nM in experiment [2] and 0.27 nM in experiment [3]. Further, the “Mean % of baseline” value in experiment [4] (sample collection time 20 min (control, first baseline, before injection)) is recorded as 98.61 % of baseline; in experiment [4] (sample collection time 30 min (control, second baseline, before injection)), 93.87 % of baseline; in experiment [4] (sample collection time 40 min (control, third baseline, before injection)), 102.42 % of baseline; in experiment [4] (sample collection time 50 min (compounds injected at 50 minutes)), 103.86 % of baseline; in experiment [4] (sample collection time 60 min, injected at 50 min), 102.14 % of baseline; in experiment [4] (sample collection time 70 min, injected at 50 min) it was 175.31 % of baseline. Further, the “Mean % of baseline” value in experiment [4] (sample collection time 80 min, injected at 50 min) was 278.67 % of baseline; in experiment [4] (sample collection time 90 min, injected at 50 min), 266.94 % of baseline; in experiment [4] (sample collection time 100 min, injected at 50 min) it was 245.19 % of baseline; in experiment [4] (sample collection time 110 min, injected at 50 min), 217.34 % of baseline; in experiment [4] (sample collection time 120 min, injected at 50 min) it was 222.39 % of baseline; in experiment [4] (sample collection time 130 min, injected at 50 min), 205.69 % of baseline. In addition, the “Mean % of baseline” value is listed as 188.49 % of baseline in experiment [4] (sample collection time 140 min, injected at 50 min); 189.79 % of baseline in experiment [4] (sample collection time 150 min, injected at 50 min); 184.27 % of baseline in experiment [4] (sample collection time 160 min, injected at 50 min); 189.27 % of baseline in experiment [4] (sample collection time 170 min, injected at 50 min); 189.86 % of baseline in experiment [4] (sample collection time 180 min, injected at 50 min).
